Results as given in patent US6468971B1, “Maintaining kidney function during surgery or trauma” (Board of Supervisors of Louisiana State University and …, priority 1998, dated 2002).
Entries after “also recorded” stand apart in the source; their conditions may differ.

How the values were obtained:
[1] = system: rats during surgery under isoflurane anesthesia; design: species or system Sprague-Dawley rat; conditions: rat, in vivo
[2] = system: conscious humans; conditions: cited from earlier work
[3] = system: human patients during general anesthesia and surgery; conditions: administered 90 minutes before anesthesia; cited from earlier work
[4] = system: isoflurane-anesthetized rats under surgery; experiment: Renal response to drug given after start of surgery and isoflurane anesthesia; type: in vivo, Sprague-Dawley rat
[5] = system: conscious rats; conditions: 50 μg i.v., cited from earlier work
[6] = system: rats anesthetized with pentobarbital; conditions: 50 μg i.v.; cited from earlier work
[7] = system: conscious rats; experiment: E-2078 effect on urine flow and sodium excretion in conscious rats (Salas et al.); type: in vivo, rat; conditions: 50 μg i.v., after 15-30 minutes
[8] = conscious healthy humans (Rimoy 1991)
[9] = intravenous bolus injection during isoflurane anesthesia and surgery

For CN1c2ccccc2C(c2ccccc2F)=NCC1CNC(=O)c1ccsc1 (single isomer, unassigned; (+)) [tifluadom, (+)-(1-methyl-2,3-thienyl-carboxyl)-aminomethyl-5-(2-fluorophenyl)H-2,3-dihydro-1,4-benzodiazepine], the “effect on urine flow rate during surgery and isoflurane anesthesia” value [1] was “remained steady (time 10) and consistently increased over time (time 20-90) until a plateau was reached (time 100-120)”, the urinary potassium excretion [1] was “remained low” and the urinary sodium excretion [1] was “remained low”. For the same compound, the urine flow rate [1] was 20 µL/min and the urine osmolality [1] was “remained low”.
For C=C1CC2(CCC(N3CCCC3)C(N(C)C(=O)Cc3ccc(Cl)c(Cl)c3)C2)OC1=O (stereo not shown) [U-62,066E, 3,4-dichloro-N-methyl-N-(3-methylene-2-oxo-8-(1-pyrrolidinyl)-1-oxaspiro(4,5)dec-7-yl)-benzeneacetamide], the urinary potassium excretion [1] was “gradual increase; also recorded: significant and steady increase toward a new plateau level”, the urinary sodium excretion [1] was “remained low throughout the duration of the experiment” and the urine flow rate [1] was “remained elevated throughout the 6 hours of the study”. For the same compound, the “central nervous system effects” value ([2]; 3.2 μg/kg dose) was “sedation, significant dysphoria, and no significant euphoria”, the diuretic response ([2]; 5 μg/kg intramuscular) was “pronounced diuretic response” and the “sodium, potassium, or chloride excretion” value ([2]; 2 to 6 μg/kg intramuscular) was “without increases in sodium, potassium, or chloride excretion”. The water diuresis ([2]; 2 to 6 μg/kg intramuscular) was “induced water diuresis”, the urine osmolality [2, 8] was “decreased urine osmolality” and the urine output [2, 8] was “significantly increased urine output”. The “diuretic potency relative to U-50,488H” value ([2]; in vivo) was “about twice as potent a diuretic as U-50,488H”.
For Clc1cccc(Cl)c1N=C1NCCN1 [clonidine], the diuresis [3] is given as “significant diuresis during surgery”, the “losses of sodium and potassium” value [3] is given as “substantial losses of sodium and potassium” and the “mean arterial pressure and heart rate” value [3] is given as “substantial decrease in mean arterial pressure and heart rate”.
With NS(=O)(=O)c1cc(C(=O)O)c(NCc2ccco2)cc1Cl [furosemide] the “effect on urine flow rate” value ([4]; continuous intravenous infusion after start of surgery and isoflurane (U-50,488H 100 μg/kg/min)) was “returned to the impaired pre-drug levels”, the “urine flow rate, peak” value ([4]; continuous intravenous infusion after start of surgery and isoflurane (U-50,488H 100 μg/kg/min), saline infusion 55 μl/min) was “about 200 μl/min” and the “course of urine flow rate after the peak” value [4, 9] was “declined rapidly”. For the same compound, the “urine flow rate, peak” value [4, 9] was “about 300 μl/min”.
In the case of OC[C@@H](O)[C@@H](O)[C@H](O)[C@H](O)CO [mannitol], the “course of urine flow rate after the peak” value [4, 9] was “not maintained and declined to the impaired levels observed before drug administration”, the urinary potassium excretion [4, 9] was “increase in urinary sodium and potassium excretion” and the urinary sodium excretion [4, 9] was “increase in urinary sodium and potassium excretion”. For the same compound, the “urine flow rate, peak” value [4, 9] was “up to 135 μl/min”.
In the case of “(N-methyl-Tyr^1,N-methyl-Arg^7-D-Leu^8)-dynorphin-A(1-8) ethylamide [E-2078]”, the urine flow rate ([5]; after 15-30 minutes) is given as 118 ± 22 µL/min, the urinary sodium excretion ([5]; at 30-45 min) is given as 1.4±0.4 μEq/min and the urinary sodium excretion [6] is given as 0.3±0.1 μEq/min. The urine flow rate [6] was 6.3 ± 1.0 µL/min and the “increase over the baseline flow rate” value [7] was 78 µL/min.
